Data from patent publication EP4725956A1, “MODIFIED POLYPEPTIDE AND USE THEREOF IN FIELD OF ANALGESIA” (Nanjing Anji Biotechnology Co., Ltd., priority 2023, dated 2024).
Positions of bridges follow the written chain, without caps; N, C: chain ends. Non-standard residues stand in square brackets, D forms with d. Residues, ends and D or L forms follow the SMILES beside them. Bip = N[C@@H](Cc1ccc(-c2ccccc2)cc1)C(=O)O; Hyp = O=C(O)[C@@H]1C[C@@H](O)CN1; Nle = CCCC[C@H](N)C(=O)O; Orn = NCCC[C@H](N)C(=O)O; Aib = CC(C)(N)C(=O)O

Columns and labels:
[1] = system: rat paclitaxel-induced chronic chemotherapy pain model; assay: Rat paclitaxel chemotherapy pain model, same dose (Example 5); format: in vivo; conditions: for analgesic activity compared with the model group (mechanical pain threshold) / ranking among the five candidate modified peptides / analgesic activity (mechanical pain threshold): 1 mg/kg s.c.; for analgesic activity compared with the model group (mechanical pain threshold): four rounds of treatment; for analgesic activity (mechanical pain threshold): day 12, 7 h after dosing; for analgesic efficacy compared with the positive control pregabalin: peptide 1 mg/kg s.c. vs pregabalin 30 mg/kg oral gavage, overall
Experimental: Male SPF (Specific Pathogen Free) SD rats weighing 180-200 g (Shanghai Institute of Planned Parenthood Research, Experimental Animal Department) were used. On the day of model induction, rats were weighed, and baseline mechanical pain thresholds were measured. Animals with large differences in body weight or pain threshold were excluded, and the remaining rats were subjected to the experimental protocol. Paclitaxel powder was dissolved in olive oil to 1 mg/mL. Each rat received an intraperitoneal injection of 2 mg/kg per dose. Four injections were administered on days 1, 3, 5, and 7. Rats in the negative control or vehicle control group received injections of the solvent used to dissolve paclitaxel. […] The blank group in Table 4 represents rats without pain modeling, and the model group represents rats with pain modeling but no drug treatment. On days 1, 3, 5, and 12, drugs were administered at fixed times. On days 1, 3, and 5, mechanical pain thresholds of the right hind paw at the corresponding time were measured at 1 h, 2.5 h, 4 h, and 5.5 h after dosing using a blunt probe. On day 12, mechanical pain thresholds were measured at 4 h and 7 h after dosing. […] AJ003-36 and AJ003-40 were thus identified as candidate molecules for further study. Paclitaxel is a widely used small-molecule chemotherapy drug that, while effective against tumors, can induce neuropathic pain in many cancer patients due to neurotoxicity. The chronic chemotherapy pain model induced in male SD rats via multiple low-dose intraperitoneal injections of paclitaxel simulates clinical chemotherapy-induced neuropathic pain. Using this model, the analgesic effects of five modified peptides, the parent peptide AJ003, and the positive control pregabalin were evaluated. […] Table 4 Dosing Scheme for Screening Analgesic Activity of Selected Modified Peptides at the Same Dose in the Paclitaxel Chemotherapy Pain Model

[2] = target: α7 nAChR (Homo sapiens, UniProt P36544); assay: BLI (biolayer interferometry) affinity of peptides to α7 nAChR; format: binding; design: inferred from the 'similar' procedure on NTA sensors; conditions: NTA sensor, α7 nAChR 20 µg/mL, peptide 1.372-1000 nM in PBS
Summary of the method: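 Target protein immobilised on NTA biosensors from PBS at 5 µg/mL (α9) or 20 µg/mL (α7). Peptides run in PBS as threefold series from 1000 nM to 1.372 nM with a PBS blank, 5-minute association and 5-minute dissociation; KD from fitted ka and kd.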

[3] = system: rat paclitaxel-induced chronic chemotherapy pain model; assay: Rat paclitaxel chemotherapy pain model, different doses (Example 6); format: in vivo; conditions: for analgesic activity compared with the model group (mechanical pain threshold): 1 mg/kg s.c., five rounds of treatment; for analgesic activity compared with the positive control pregabalin: high dose 1.5 mg/kg s.c. vs pregabalin 30 mg/kg oral gavage; for analgesic effect compared with the model group (mechanical pain threshold): high dose 1.5 mg/kg s.c., 8 h after dosing; for analgesic activity compared with the parent peptide AJ003: low dose 0.5 mg/kg s.c. vs AJ003 1 mg/kg s.c.
Experimental: Male SPF (Specific Pathogen Free) SD rats weighing 180-200 g (Shanghai Institute of Planned Parenthood Research, Experimental Animal Department) were purchased and allowed to acclimate for approximately one week. On the day of model induction, rats were weighed, and baseline mechanical pain thresholds were measured. Animals with large differences in body weight or pain threshold were excluded, and the remaining rats were subjected to the experimental protocol. Paclitaxel powder was dissolved in olive oil to 1 mg/mL. Each rat received an intraperitoneal injection of 2 mg/kg per dose. Four injections were administered on days 1, 3, 5, and 7. Rats in the negative control or vehicle control group received injections of the solvent used to dissolve paclitaxel. […] Starting from day 15 after model induction, drugs were administered daily for consecutive days. On days 1, 4, 7, 12, and 14 of treatment, mechanical pain thresholds of the right hind paw at the corresponding time were measured at 2 h, 4 h, 6 h, and 8 h after dosing using a blunt probe. […]. […] Table 5 Dosing Scheme for Screening Analgesic Activity of Selected Modified Peptides at Different Doses in the Paclitaxel Chemotherapy Pain Model

SMILES | analgesic activity compared with the model group (mechanical pain threshold) ([1]; beyond 4 h after dosing) | analgesic activity compared with the model group (mechanical pain threshold) ([1]; within 4 h after dosing) | Kd [2] [nM] | analgesic activity compared with the model group (mechanical pain threshold) ([3]; beyond 4 h after dosing) | analgesic activity compared with the model group (mechanical pain threshold) ([3]; within 4 h after dosing) | ranking among the five candidate modified peptides [1] | analgesic activity (mechanical pain threshold) [1] | analgesic efficacy compared with the positive control pregabalin [1] | analgesic activity compared with the positive control pregabalin [3] | analgesic effect compared with the model group (mechanical pain threshold) [3] | analgesic activity compared with the parent peptide AJ003 [3]
CC(C)C[C@H](NC(=O)[C@@H](NC(=O)[C@H]1CSSC[C@H](NC(=O)[C@H](CO)NC(=O)CN)C(=O)N[C@@H](CO)C(=O)N[C@@H]([C@@H](C)O)C(=O)N2CCC[C@H]2C(=O)N2CCC[C@H]2C(=O)N[C@@H](CO)C(=O)N1)C(C)C)C(=O)N[C@@H](Cc1ccc(O)cc1)C(=O)N[C@@H](CO)C(=O)O [AJ003, GSCSTPPS-(D-Cys)-VLYS (disulfide bond between positions 3 and 9)] (H-GSCSTPPS[dC]VLYS-OH; disulfide 3-9) | no significant analgesic effect | significant analgesic activity | 223 | no significant effect | significant analgesic activity |  |  |  |  |  | 
CCCC[C@H](NC(=O)[C@@H](NC(=O)[C@H]1CSSC[C@H](NC(=O)[C@H](CO)NC(=O)CN)C(=O)N[C@@H](CO)C(=O)N[C@H]([C@H](C)O)C(=O)N2C[C@H](O)C[C@H]2C(=O)N2C[C@H](O)C[C@H]2C(=O)NC(C)(C)C(=O)N1)C(C)C)C(=O)N[C@@H](Cc1ccc(-c2ccccc2)cc1)C(=O)N[C@@H](CCCN)C(N)=O [AJ003-36, GSCS-(D-Thr)-Hyp-Hyp-Aib-(D-Cys)-V-Nle-Bip-Orn-NH2 (3,9 disulfide bond)] (H-GSCS[dT][Hyp][Hyp][Aib][dC]V[Nle][Bip][Orn]-NH2; disulfide 3-9) |  |  | 40.8 |  |  | top three analgesic candidates | prolonged analgesic activity lasting up to 7 h | comparable in analgesic efficacy to pregabalin | slightly superior to the positive control pregabalin | remained significant | comparable to that of AJ003 at 1 mg/kg
CCCC[C@H](NC(=O)[C@@H](NC(=O)[C@H]1CSSC[C@H](NC(=O)[C@H](CO)NC(=O)CN)C(=O)N[C@@H](CO)C(=O)N[C@H]([C@H](C)O)C(=O)N2C[C@H](O)C[C@H]2C(=O)N2C[C@H](O)C[C@H]2C(=O)N[C@@H](CO)C(=O)N1)C(C)C)C(=O)N[C@@H](Cc1c[nH]c2ccccc12)C(=O)N[C@@H](CCCN)C(N)=O [AJ003-40, GSCS-(D-Thr)-Hyp-Hyp-S-(D-Cys)-V-Nle-W-Orn-NH2 (3,9 disulfide bond)] (H-GSCS[dT][Hyp][Hyp]S[dC]V[Nle]W[Orn]-NH2; disulfide 3-9) |  |  | 46.5 |  |  | top three analgesic candidates | prolonged analgesic activity lasting up to 7 h | comparable in analgesic efficacy to pregabalin | slightly superior to the positive control pregabalin | remained significant | comparable to that of AJ003 at 1 mg/kg
